Where a SMILES comes first, the peptide text is derived from it. The star is where a group is joined. X1 = CC1(C)C(=CC=C2CCCC(C=CC3=[N+](CCCCCC(=O)O)c4ccccc4C3(C)C)=C2*)N(CCCCCC(=O)O)c2ccccc21
How the values were obtained:
H460 cells = type: cell-based, human; settings: 50 μM for 6, 12, 24 h (flow cytometry), 1–100 μM 24 h (CCK-8)
Protocol: lysed in an ice bath at 1℃, 16000g for 15 minutes, the supernatant was transferred to a pre-cooled centrifuge tube in an ice bath. For each group, 20 μM (final concentration) Ac-DEVD-AMC and 100μl cell lysate were added to 1 ml Protease Assay Buffer [20 mM HEPES (pH 7.5), 10% glycerol, 2 mM DTT]. The reaction mixtures were incubated for 1 hour at 37 °C. The AMC released from Ac-DEVD-AMC was measured using a spectrofluorometer with an excitation wavelength of 380 nm and an emission wavelength range of 400-550 nm.
Flow cytometry analysis. A density of 1 × 10^5 H460 cells per well were seeded in the 6-well plates in 1640 medium which contains 10% fetal bovine serum and 1% penicillin–streptomycin, then cultured at 37 °C in a humidified atmosphere with 5% CO 2 for 16 h. Then molecules 1, 2 and 3 (50 μM) were added to each well, and the cells were incubated for additional 6 h, 12 h and 24 h, respectively. The apoptosis of the collected cells stained by Annexin V -FITC and PI (propidium iodide) was studied by […]
Cell viability assays . CCK-8 (cell counting kit-8) assay was carried out to investigate the cell viability.
H460 cells were utilized to evaluate the cytotoxicity of molecules 1, 2 and 3 by the CCK-8 assay.
Molecules 1, 2 and 3 were dispersed in 1640 medium with different concentration s such as 1, 5, 10, 30, 60 and 100 μM. The cells with the density of 5 × 10^4 cells per well were seeded in the 96 -well plates in 1640 medium containing 10% fetal bovine serum and 1% penicillin –streptomycin, then cultured at 37 °C in a humidified atmosphere with 5% CO 2 for 16 h. […]
Microplate reader was used to measure the UV -Vis absorptions of sample wells (A sample), Ablack and control wells (A control) at a test wavelength of 450 nm and a reference wavelength of 690 nm, […]
Blood circulation. […] The supernatant of the blood samples was collected by centrifugation at 10 000 rpm for 10 min , and the content of compound 1, 2 and 3 in the supernatant w ere determined using fluorescence spectrophotometric measurement. […]
3 h. […] Morphologies of liposomes were measured by Tecnai G20 electron microscope. […]

[1] = Blood circulation pharmacokinetics; type: in vivo, mouse; settings: Balb/c mice, IV single dose 14 mg/kg, blood 0.017–6 h, fluorescence spectroscopy, DAS2.0, mean ± s.d. n = 3
Protocol: respectively. Cell viability (%) was equal to (Asample - Ablank)/ (Acontrol - Ablank) x 100. All the experiments were performed in triplicate.
Blood circulation. To investigate the pharmacokinetics of the compound 1, 2 and 3, Balb/c mice were randomly divided into three groups (n = 3). Each group was intravenous (iv) injected with a single dose of 14 mg/kg of compou nd 1, 2 or 3. Blood samples were collected via the orbital venous plexus at 0.017, 0.08 3, 0.25, 0.5, 1, 3, 4 and 6 h post injection and collected into EDTA tubes. The supernatant of the blood samples was collected by centrifugation at 10 000 rpm for 10 min , and the content of compound 1, 2 and 3 in the supernatant w ere determined using fluorescence spectrophotometric measurement. Data for known concentrations of compound 1, 2 or 3 (concentration from 1.2 μM to 25.0 μM) were used to make the standard curve, the “Predicted R-Squared” value of 0.99.
Preparation and characteristic of liposomes. Liposomes were prepared by a thin lipid film hydration method followed by extrusion. Briefly, PC: CH: DSPE -PEG-NHS = 66: 32: 2 (molar ratio) were dissolved in a chloroform/methanol mixture (4: 1) in a round bottom flask. The lipid film was hydrated with PBS (pH 7.4) after evaporation of the chloroform/methanol solvents. […]
3 h. […] Morphologies of liposomes were measured by Tecnai G20 electron microscope.

Question: With CSCC[C@H](N)C(=O)N[C@@H](CC(=O)O)C(=O)N[C@@H](CCC(=O)O)C(=O)N[C@@H](CCCCN)C(=O)N[C@@H](C)C(=O)N[C@@H](CCC(N)=O)C(=O)N[C@@H](CCCCN)C(=O)N[C@@H](CC(=O)O)C(=O)N[C@@H](CCC(=O)O)C(=O)N[C@H](C(=O)N[C@@H](CC(=O)O)C(=O)N[C@@H](CCCCN)C(=O)N[C@@H](CC(C)C)C(=O)N[C@H](C(=O)N[C@@H](Cc1ccccc1)C(=O)N[C@@H](Cc1ccccc1)C(=O)N[C@@H](C)C(=O)N[C@@H](CCC(=O)O)C(=O)N[C@@H](CSC1=C(C=CC2=[N+](CCCCCC(=O)O)c3ccccc3C2(C)C)CCCC1=CC=C1N(CCCCCC(=O)O)c2ccccc2C1(C)C)C(=O)NCC(=O)O)C(C)C)C(C)C [molecule 2] (H-MDEKAQKDEVDKLVFFAEC(X1)G-OH; N-terminus assumed) as the compound, how does the “apoptotic cell death (flow cytometry and cell viability assays)” value (“apoptotic cell death” for short) (H460 cells) read?
Answer: No apoptosis was observed

Question: With CC[C@H](C)[C@H](NC(=O)[C@@H]1CCCN1C(=O)[C@@H](NC(=O)[C@H](C)N)C(C)C)C(=O)N[C@@H](C)C(=O)N[C@@H](CCC(N)=O)C(=O)N[C@@H](CCCCN)C(=O)N[C@@H](CC(=O)O)C(=O)N[C@@H](CCC(=O)O)C(=O)N[C@H](C(=O)N[C@@H](CC(=O)O)C(=O)N[C@@H](CCCCN)C(=O)N[C@@H](CC(C)C)C(=O)N[C@H](C(=O)N[C@@H](Cc1ccccc1)C(=O)N[C@@H](Cc1ccccc1)C(=O)N[C@@H](C)C(=O)N[C@@H](CCC(=O)O)C(=O)N[C@@H](CSC1=C(C=CC2=[N+](CCCCCC(=O)O)c3ccccc3C2(C)C)CCCC1=CC=C1N(CCCCCC(=O)O)c2ccccc2C1(C)C)C(=O)NCC(=O)O)C(C)C)C(C)C [molecule 1] (H-AVPIAQKDEVDKLVFFAEC(X1)G-OH) as the compound, how does the “apoptotic cell death” value (H460 cells) read?
Answer: No apoptosis was observed

Question: And the “blood circulation half-life (t1/2β)” value [1]?
Answer: 1.15 ± 0.10 h

Question: For CC[C@H](C)[C@H](NC(=O)[C@@H]1CCCN1C(=O)[C@@H](NC(=O)[C@H](C)N)C(C)C)C(=O)N[C@@H](C)C(=O)N[C@@H](CCC(N)=O)C(=O)N[C@@H](CCCCN)C(=O)N[C@@H](CC(=O)O)C(=O)N[C@@H](CCC(=O)O)C(=O)N[C@H](C(=O)N[C@@H](CC(=O)O)C(=O)N[C@@H](CCC(=O)O)C(=O)N[C@@H](CSC1=C(C=CC2=[N+](CCCCCC(=O)O)c3ccccc3C2(C)C)CCCC1=CC=C1N(CCCCCC(=O)O)c2ccccc2C1(C)C)C(=O)NCC(=O)O)C(C)C [molecule 3] (H-AVPIAQKDEVDEC(X1)G-OH; N-terminus assumed), which “apoptotic cell death” value (H460 cells) is on record?
Answer: No apoptosis was observed

Question: What about the “blood circulation half-life (t1/2β)” value [1] of the same compound?
Answer: 1.06 ± 0.17 h
